Assays:
[1] = target: T1, serotonin 5-HT3A receptor (Homo sapiens, UniProt P46098); assay: Assay for 5-HT3A receptor: two-electrode voltage clamp of 5-HT-induced inward current in Xenopus oocytes expressing 5-HT3A receptor; format: cell-based; conditions: inhibition of inward current (I5-HT) induced by 5-HT (1 μM), Xenopus laevis oocytes, from concentration-response curves; for IC50: read-out: IC50 (50% inhibitory concentration); for inhibition: read-out: maximum inhibition value (Vmax)
T1 sequence (P46098 24-478): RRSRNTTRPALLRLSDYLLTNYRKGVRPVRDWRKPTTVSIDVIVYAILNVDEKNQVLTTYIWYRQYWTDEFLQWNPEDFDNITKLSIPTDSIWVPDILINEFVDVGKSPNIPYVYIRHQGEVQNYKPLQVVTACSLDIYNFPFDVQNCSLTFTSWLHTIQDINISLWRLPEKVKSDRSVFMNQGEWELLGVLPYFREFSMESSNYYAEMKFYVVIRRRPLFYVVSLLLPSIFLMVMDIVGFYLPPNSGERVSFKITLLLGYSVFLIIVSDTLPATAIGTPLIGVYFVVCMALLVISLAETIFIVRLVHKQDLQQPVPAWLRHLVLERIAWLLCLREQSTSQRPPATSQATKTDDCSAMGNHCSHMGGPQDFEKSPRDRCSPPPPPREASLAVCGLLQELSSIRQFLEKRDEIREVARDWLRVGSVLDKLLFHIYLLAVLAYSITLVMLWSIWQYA

Molecule: 1-Phenyl-3-{2-[4-(4-chlorobenzhydryl)piperazin-1-yl]ethyl}aminomethyl-5-toluylpyrazole [Compound 13]
- Hill coefficient (nH) [1]: 2.2 ± 0.4
- maximum inhibition value (Vmax) [1]: 73.1 ± 3.1
- IC50 [1]: 8.2 ± 0.8 µM

Molecule: CCCc1cc(CNCCN2CCN(c3ccc(Cl)cc3)CC2)nn1-c1ccccc1 [Compound 5, 1-Phenyl-3-{2-[4-(4-chlorophenyl)piperazin-1-yl]ethyl}aminomethyl-5-propylpyrazole]
- Hill coefficient (nH) [1]: 1.5 ± 0.3
- IC50 [1]: 1.3 ± 0.2 µM
- inhibition [1]: 94.8 ± 4.8%

Molecule: 1-t-Butyl-3-{2-[4-(4-chlorophenyl)piperazin-1-yl]ethyl}aminomethyl-5-propylpyrazole [Compound 4]
- Hill coefficient (nH) [1]: 1.4 ± 0.3
- maximum inhibition value (Vmax) [1]: 97.3 ± 5.6
- IC50 [1]: 1.3 ± 0.3 µM

Molecule: CC(C)Cc1cc(CNCCN2CCN(c3ccc(Cl)cc3)CC2)nn1C(C)(C)C [Compound 7, 1-t-Butyl-3-{2-[4-(4-chlorophenyl)piperazin-1-yl]ethyl}aminomethyl-5-isobutylpyrazole]
- melting point: 133 to 134 °C
- Hill coefficient (nH) [1]: 1.4 ± 0.4
- IC50 [1]: 3.3 ± 0.9 µM
- inhibition [1]: 104 ± 3.5%

Molecule: Cc1ccc(-c2cc(CNCCN3CCN(c4ccc(Cl)cc4)CC3)nn2-c2ccccc2)cc1 [Compound 12, 1,5-Diphenyl-3-{2-[4-(4-chlorophenyl)piperazin-1-yl]ethyl}aminomethyl-5-toluylpyrazole]
- IC50 [1]: 2.2 ± 0.2 µM
- inhibition [1]: 95.5 ± 3.5%

Molecule: Cc1cc(CNCCN2CCN(c3cccc(Cl)c3)CC2)[nH]n1 [Compound 2, 3-{2-[4-(3-Chlorophenyl)piperazin-1-yl]ethyl}aminomethyl-5-methylpyrazole]
- Hill coefficient (nH) [1]: 1.0 ± 0.1
- IC50 [1]: 9.6 ± 1.1 µM
- inhibition [1]: 90.6 ± 2.7%

Molecule: Clc1cccc(N2CCN(CCNCc3cc(-c4ccco4)n(-c4ccccc4)n3)CC2)c1 [Compound 1, 1-Phenyl-3-{2-[4-(3-chlorophenyl)piperazin-1-yl]ethyl}aminomethyl-5-(2-furyl)pyrazole]
- Hill coefficient (nH) [1]: 1.5 ± 0.2
- IC50 [1]: 9.4 ± 0.7 µM
- inhibition [1]: 95.9 ± 2.8%

Molecule: CN1[C@@H]2CC[C@H]1C[C@@H](OC(=O)c1cc(Cl)cc(Cl)c1)C2 [MDL72222, reference compound]
- Hill coefficient (nH) [1]: 1.25 ± 0.27
- inhibition [1]: 99.6 ± 7.7%

Molecule: CC(C)Cc1cc(CNCCN2CCN(c3ccc(Cl)cc3)CC2)nn1-c1ccccc1 [Compound 6, 1-Phenyl-3-{2-[4-(4-chlorophenyl)piperazin-1-yl]ethyl}aminomethyl-5-isobutylpyrazole]
- Hill coefficient (nH) [1]: 1.2 ± 0.1
- IC50 [1]: 2.8 ± 0.2 µM
- inhibition [1]: 103 ± 2.5%

Molecule: 1-Phenyl-3-{2-[4-(4-chlorophenyl)piperazin-1-yl]ethyl}aminomethyl-5-methylpyrazole [Compound 3]
- Hill coefficient (nH) [1]: 1.4 ± 0.1
- maximum inhibition value (Vmax) [1]: 98.5 ± 1.2
- IC50 [1]: 2.5 ± 0.3 µM

Molecule: Clc1ccc(N2CCN(CCNCc3cc(-c4ccccc4)n(-c4ccccc4)n3)CC2)cc1 [Compound 11, 1,5-Diphenyl-3-{2-[4-(4-chlorophenyl)piperazin-1-yl]ethyl}aminomethyl-5-pyrazole]
- Hill coefficient (nH) [1]: 1.1 ± 0.1
- IC50 [1]: 3.1 ± 0.3 µM
- inhibition [1]: 101 ± 2.6%

Molecule: Clc1ccc(N2CCN(CCNCc3cc(-c4ccco4)n(-c4ccccc4)n3)CC2)cc1 [Compound 8, 1-Phenyl-3-{2-[4-(4-chlorophenyl)piperazin-1-yl]ethyl}aminomethyl-5-(2-furyl)pyrazole]
- Hill coefficient (nH) [1]: 2.0 ± 0.2
- IC50 [1]: 4.3 ± 0.3 µM
- inhibition [1]: 97.3 ± 2%

Molecule: Cc1ccc(-c2cc(CNCCN3CCN(c4ccc(Cl)cc4)CC3)nn2C(C)(C)C)cc1 [Compound 9]
- IC50 [1]: 2.4 ± 0.4 µM
- inhibition [1]: 103 ± 6.5%

Molecule: Clc1ccc(N2CCN(CCNCc3cc(-c4ccc(N5CCCCC5)cc4)n(-c4ccccc4)n3)CC2)cc1 [Compound 10, 1-Phenyl-3-{2-[4-(4-chlorophenyl)piperazin-1-yl]ethyl}aminomethyl-5-4-(N-piperidyl)phenylpyrazole]
- Hill coefficient (nH) [1]: 1.9 ± 0.1
- IC50 [1]: 6.4 ± 0.3 µM
- inhibition [1]: 95.9 ± 1.6%

— US20080312253A1, “Pharmaceutical compositions containing pyrazole derivatives for treating as serotonin antagonist” (KOREA INSTITUTE OF SCIENCE AND TECHNOLOGY, priority 2007, published 2008)
